pEC50: −log10 of the molar value.

The target in the assay is AMPK. Description: AMPK activation, enzyme-linked immunosorbent assay. The following applies: Table 12, compounds of Table 5. It is filed as biochemical. Put shortly: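 Read-out: ELISA, used to detect compound-driven activation of AMPK.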
The compound `CC(C)(C)OC(=O)N1CCC(Oc2ccc(C(=O)NC3CCN(Cc4ccccc4)CC3)cc2F)CC1` [Compound 5-92, tert-butyl 4-(4-(1-benzylpiperidin-4-ylcarbamoyl)-2-fluorophenoxy) piperidine-1-carboxylate] gave a pEC50 of 5.00 to 6.00.

With `O=C(NC1CCN(Cc2ccccc2)CC1)c1ccc(OC2CCNCC2)c(Cl)c1` [Compound 5-93, N-(1-benzylpiperidin-4-yl)-3-chloro-4-(piperidin-4-yloxy)benzamide], the pEC50 was under 4.00.

With `COc1cc(C(=O)NCCCNC(=O)OC(C)(C)C)ccc1OC1CCN(Cc2ccc(C(F)(F)F)cc2)CC1` [Compound 5-94, tert-butyl 3-(3-methoxy-4-(1-(4-(trifluoromethyl)benzyl)piperidin-4-yloxy)benzamido) propylcarbamate], the pEC50 is over 6.00.

As to `CC(C)(C)OC(=O)NCCCNC(=O)c1ccc(OC2CCN(Cc3ccc(C(F)(F)F)cc3)CC2)cc1` [Compound 5-95, tert-butyl 3-(4-(1-(4-(trifluoromethyl)benzyl)piperidin-4-yloxy)benzamido) propylcarbamate], the negative-log EC50 (pEC50) is over 6.00.

Compound `COc1ccc(CN2CCC(Oc3ccc(C(=O)N4CCN(C(=O)OC(C)(C)C)CC4)cc3)CC2)cc1` [Compound 5-96, tert-butyl 4-(4-(1-(4-methoxybenzyl)piperidin-4-yloxy)benzoyl)piperazine-1-carboxylate] showed a pEC50 of 5.00 to 6.00.

As for `COc1ccc(CN2CCC(Oc3ccc(C(=O)NCCCNC(=O)OC(C)(C)C)cc3Cl)CC2)cc1` [Compound 5-97, tert-butyl 3-(3-chloro-4-(1-(4-methoxybenzyl)piperidin-4-yloxy)benzamido) propylcarbamate], the pEC50 was 5.00 to 6.00.

For the compound `COc1cc(C(=O)NCCCN2CCOCC2)ccc1OC1CCN(Cc2ccc(Cl)cc2)CC1` [Compound 5-98, 4-(1-(4-chlorobenzyl)piperidin-4-yloxy)-4-methoxy-N-(3-morpholinopropyl)benzamide], the pEC50 is 5.00 to 6.00.

Take `CC(C)(C)OC(=O)N1CCN(C(=O)c2ccc(OC3CCN(Cc4ccccc4)CC3)cc2)CC1` [Compound 5-99, tert-butyl 4-(4-(1-benzylpiperidin-4-yloxy)benzoyl)piperazine-1-carboxylate]: the negative-log EC50 (pEC50) was 5.00 to 6.00.

Regarding `O=C(NCCCN1CCOCC1)c1ccc(OC2CCN(Cc3ccc(Cl)cc3)CC2)cc1` [Compound 5-100, 4-(1-(4-chlorobenzyl)piperidin-4-yloxy)-N-(3-morpholinopropyl)benzamide], the pEC50 was 5.00 to 6.00.

Compound `COc1ccc(CN2CCC(Oc3ccc(C(=O)NCCCN4CCOCC4)cc3Cl)CC2)cc1` [Compound 5-101, 3-chloro-4-(1-(4-methoxybenzyl)piperidin-4-yloxy)-N-(3-morpholinopropyl)benzamide] showed a pEC50 of 4.70 to 5.00.

In the case of `CC(C)(C)OC(=O)NCCCNC(=O)c1ccc(OC2CCN(Cc3ccccc3)CC2)c(Cl)c1` [Compound 5-102, tert-butyl 3-(4-(1-benzylpiperidin-4-yloxy)-3-chlorobenzamido) propylcarbamate], the negative-log EC50 (pEC50) is 4.70 to 5.00.

The compound `O=C(c1ccc(OC2CCN(Cc3ccccc3)CC2)cc1)N1CCN(c2ccccc2)CC1` [Compound 5-103, (4-(1-benzylpiperidin-4-yloxy)phenyl)(4-phenylpiperazin-l-yl)methanone] gave a pEC50 of 4.30 to 4.70.

`Cc1ccc(CN2CCC(Oc3ccc(C(=O)NCCCN4CCOCC4)cc3)CC2)cc1` [Compound 5-104, 4-(1-(4-methylbenzyl)piperidin-4-yloxy)-N-(3-morpholinopropyl)benzamide] showed a pEC50 of 4.70 to 5.00.

With `O=C(c1ccc(OC2CCN(Cc3ccccc3)CC2)cc1)N1CCN(Cc2ccccn2)CC1` [Compound 5-105, (4-(1-benzylpiperidin-4-yloxy)phenyl)(4-(pyridin-2-ylmethyl)piperazin-1-yl)methanone], the pEC50 is 4.70 to 5.00.

As for `COc1ccc(CN2CCC(NC(=O)c3cccc(OC4CCN(Cc5ccc(-c6ccccn6)cc5)CC4)c3)CC2)cc1` [Compound 5-106, N-(1-(4-methoxybenzyl)piperidin-4-yl)-3-(1-(4-(pyridin-2-yl)benzyl)piperidin-4-yloxy)benzamide], the pEC50 was over 6.00.

In the case of `COc1ccc(CN2CCC(NC(=O)c3cccc(OC4CCN(Cc5ccc(OC)cc5)CC4)c3)CC2)cc1` [Compound 5-107, N-(1-(4-methoxybenzyl)piperidin-4-yl)-3-(1-(4-methoxybenzyl)piperidin-4-yloxy)benzamide], the pEC50 was over 6.00.

Turning to `COc1ccc(CN2CCC(NC(=O)c3cccc(OC4CCN(Cc5ccc(C(F)(F)F)cc5)CC4)c3)CC2)cc1` [Compound 5-108, N-(1-(4-methoxybenzyl)piperidin-4-yl)-3-(1-(4-(trifluoromethyl)benzyl)piperidin-4-yloxy)benzamide], the negative logarithm of the EC50 (pEC50) is over 6.00.

`COc1ccc(CN2CCC(NC(=O)c3cccc(OC4CCN(Cc5ccc(N6CCOCC6)cc5)CC4)c3)CC2)cc1` [Compound 5-109, N-(1-(4-methoxybenzyl)piperidin-4-yl)-3-(1-(4-morpholinobenzyl)piperidin-4-yloxy)benzamide] had a pEC50 of over 6.00.

Take `COc1ccc(CN2CCC(NC(=O)c3cccc(OC4CCN(CC5CCN(c6ccccc6)CC5)CC4)c3)CC2)cc1` [Compound 5-110, N-(1-(4-methoxybenzyl)piperidin-4-yl)-3-(1-((1-phenylpiperidin-4-yl)methyl)piperidin-4-yloxy)benzamide]: the pEC50 is over 6.00.

Compound `COc1ccc(CN2CCC(NC(=O)c3cccc(OC4CCN(Cc5cnn(-c6ccc(F)cc6)c5)CC4)c3)CC2)cc1` [Compound 5-111, 3-(1-((1-(4-fluorophenyl)-1H-pyrazol-4-yl)methyl)piperidin-4-yloxy)-N-(1-(4-methoxybenzyl)piperidin-4-yl)benzamide] gave a pEC50 of over 6.00.

Turning to `COC(=O)c1ccc(CN2CCC(Oc3cccc(C(=O)NC4CCN(Cc5ccc(OC)cc5)CC4)c3)CC2)cc1` [Compound 5-112, methyl 4-((4-(3-(l-(4-methoxybenzyl)piperidin-4-ylcarbamoyl)phenoxy)piperidin-1-yl)methyl)benzoate], the pEC50 was 5.00 to 6.00.

In turn, `COc1ccc(CN2CCC(NC(=O)c3cccc(OC4CCN(Cc5ccc(Oc6ccc(C#N)cc6)cc5)CC4)c3)CC2)cc1` [Compound 5-113, 3-(1-(4-(4-cyanophenoxy)benzyl)piperidin-4-yloxy)-N-(1-(4-methoxybenzyl)piperidin-4-yl)benzamide] showed a pEC50 of over 6.00.

Compound `COc1ccc(CN2CCC(NC(=O)c3cccc(OC4CCN(Cc5cnn(-c6ccccn6)c5)CC4)c3)CC2)cc1` [Compound 5-114, N-(1-(4-methoxybenzyl)piperidin-4-yl)-3-(1-((1-(pyridin-2-yl)-1H-pyrazol-4-yl)methyl)piperidin-4-yloxy)benzamide] showed a pEC50 of 5.00 to 6.00.

On to `N#Cc1ccc(CN2CCC(NC(=O)c3cccc(OC4CCN(c5ccc(C#N)cc5)CC4)c3)CC2)cc1` [Compound 5-115, N-(1-(4-cyanobenzyl)piperidin-4-yl)-3-(1-(4-cyanophenyl)piperidin-4-yloxy)benzamide], for which the pEC50 is over 6.00.

`N#Cc1ccc(CN2CCC(NC(=O)c3cccc(OC4CCN(Cc5ccc(N6CCCC6)cc5)CC4)c3)CC2)cc1` [Compound 5-116, N-(1-(4-cyanobenzyl)piperidin-4-yl)-3-(1-(4-(pyrrolidin-1-yl)benzyl)piperidin-4-yloxy)benzamide] gave a pEC50 of over 6.00.

On to `N#Cc1ccc(CN2CCC(NC(=O)c3cccc(OC4CCN(Cc5ccc(Oc6ccccc6)cc5)CC4)c3)CC2)cc1` [Compound 5-117, N-(1-(4-cyanobenzyl)piperidin-4-yl)-3-(1-(4-phenoxybenzyl)piperidin-4-yloxy)benzamide], for which the pEC50 is over 6.00.

`N#Cc1ccc(CN2CCC(NC(=O)c3cccc(OC4CCN(Cc5ccc(-c6ccccn6)cc5)CC4)c3)CC2)cc1` [Compound 5-118, N-(1-(4-cyanobenzyl)piperidin-4-yl)-3-(1-(4-(pyridin-2-yl)benzyl)piperidin-4-yloxy)benzamide]: the pEC50 was over 6.00.

Regarding `N#Cc1ccc(CN2CCC(NC(=O)c3cccc(OC4CCN(Cc5ccc(-n6cccn6)cc5)CC4)c3)CC2)cc1` [Compound 5-119, 3-(l-(4-(lH-pyrazol-1-yl)benzyl)piperidin-4-yloxy)-N-(1-(4-cyanobenzyl)piperidin-4-yl)benzamide], the pEC50 is over 6.00.

Take `N#Cc1ccc(CN2CCC(NC(=O)c3cccc(OC4CCN(Cc5ccc(C#N)c(F)c5)CC4)c3)CC2)cc1` [Compound 5-120, 3-(1-(4-cyano-3-fluorobenzyl)piperidin-4-yloxy)-N-(1-(4-cyanobenzyl)piperidin-4-yl)benzamide]: the pEC50 is over 6.00.

In turn, `CC(C)Oc1ccc(CN2CCC(Oc3cccc(C(=O)NC4CCN(Cc5ccc(C#N)cc5)CC4)c3)CC2)cc1` [Compound 5-121, N-(1-(4-cyanobenzyl)piperidin-4-yl)-3-(1-(4-isopropoxybenzyl)piperidin-4-yloxy)benzamide] had a pEC50 of over 6.00.

The compound `N#Cc1ccc(CN2CCC(NC(=O)c3cccc(OC4CCN(Cc5cnn(-c6ccc(F)cc6)c5)CC4)c3)CC2)cc1` [Compound 5-122, N-(1-(4-cyanobenzyl)piperidin-4-yl)-3-(1-((1-(4-fluorophenyl)-1H-pyrazol-4-yl)methyl)piperidin-4-yloxy)benzamide] showed a negative-log EC50 (pEC50) of over 6.00.

Turning to `N#Cc1ccc(CN2CCC(NC(=O)c3cccc(OC4CCN(Cc5ccc(OC(F)(F)F)cc5)CC4)c3)CC2)cc1` [Compound 5-123, N-(1-(4-cyanobenzyl)piperidin-4-yl)-3-(1-(4-(trifluoromethoxy)benzyl)piperidin-4-yloxy)benzamide], the pEC50 is under 4.00.

For the compound `N#Cc1ccc(CN2CCC(NC(=O)c3cccc(OC4CCN(Cc5ccc(C#N)cc5)CC4)c3)CC2)cc1` [Compound 5-124, N-(1-(4-cyanobenzyl)piperidin-4-yl)-3-(1-(4-cyanobenzyl)piperidin-4-yloxy)benzamide], the pEC50 is over 6.00.

In the case of `N#Cc1ccc(CN2CCC(NC(=O)c3cccc(OC4CCN(Cc5ccc(C(F)(F)F)cc5)CC4)c3)CC2)cc1` [Compound 5-125, N-(1-(4-cyanobenzyl)piperidin-4-yl)-3-(1-(4-(trifluoromethyl)benzyl)piperidin-4-yloxy)benzamide], the pEC50 is over 6.00.
